Results on 15 molecules are retold here after PubChem BioAssay (NCI).

Common to all, as to assay: NCI-60 cell line screen, 48 h
For test [1], the system named is COLO 205 colon.
In test [2] the test system is HCT-116 colon.
Test [3] relates to HL-60(TB) leukemia.
In test [4] the test system is HOP-62 NSCLC.
Test [5] relates to HT29 colon.
Test [6] relates to MOLT-4 leukemia.
The subject of test [7] is NCI/ADR-RES ovarian.
The test system of test [8] is SK-MEL-5 melanoma.
Test [9] concerns SNB-19 CNS.
In test [10] the test system is A498 renal.

SMILES strings stand for the structures.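 Method: 48-hour compound exposure of cells in 96-well plates, five concentrations, linear interpolation of endpoints. GI50 is the concentration that inhibits growth by half. TGI is the concentration that stops growth completely.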 Bounds are passed on as bounds.

On to `Cc1ccccc1N=C(N)NC#N`, for which the TGI in test [1], in [2], in test [3], in test [4], in [5] and in [6] was above 100 µM throughout. Further, the TGI in [7], in [8] and in test [9] was above 100 µM in each case.
Consider `C(=N\Nc1ncc(-c2cc3cc4c(cc3o2)OCO4)s1)/c1c[nH]c2ccccc12`, for which the GI50 was 2130 nM in test [2]; 2180 nM in test [3]; 1600 nM in test [4]; 3.32 µM in test [5]; 385 nM in test [6]; 1660 nM in [8]. Moreover, the GI50 in test [9] was 1570 nM. Moreover, the TGI in test [2] is 10.2 µM; in test [3], 14.4 µM; in test [4], 7.95 µM; in test [5] it was above 100 µM; in test [6], 9.49 µM; in test [8] it was 3.23 µM. In [9], this molecule yielded a TGI of 6.25 µM.
With `CCOC(=O)C(=[N+]=[N-])C(=O)C[N+]12CCN(CC1)CC2`, the TGI in test [10], in test [1], in [2], in [4], in test [5] and in test [6] was above 100 µM throughout. Besides, the TGI in [7], in test [8] and in test [9] was above 100 µM in each case.
For `COc1c(-c2cc(C)c(Cl)c(=O)[nH]2)c(O)c(OC)c2occc12`, the TGI in test [1], in [2], in test [3], in test [4], in [5] and in [6] was above 100 µM in each case. Besides, the TGI in [7], in [8] and in test [9] was above 100 µM throughout.
Regarding `O=C1C=Cc2c(Cl)sc(Cl)c21`, the TGI in test [10] was determined as 16.1 µM; in test [2], 2.33 µM; in [4] it was 4.2 µM; in test [5] it was 3.34 µM; in test [7] it was 5.32 µM; in test [8], 8.09 µM. The TGI in test [9] is 19.8 µM.
Turning to `Cc1cn(C2CC(O)C(CO)C2C)c(=O)[nH]c1=O` (stereo not given), the TGI in [1], in [2], in [3], in test [4], in [5] and in test [6] was above 100 µM each time. The TGI in test [9] is above 100 µM.
In the case of `CCNC(=S)N/N=C/c1cc(OC)ccc1O`, the TGI in test [1], in test [2], in [3], in test [4], in test [5] and in [6] was above 100 µM each time. The TGI in test [7], in test [8] and in [9] was above 100 µM throughout.
On to `CC1CN=C(Nc2cccc(C(F)(F)F)c2)S1` (stereo not given), for which the TGI in [10] was above 100 µM; in test [2], above 100 µM; in test [3] it was 77 µM; in test [4] it was above 100 µM; in [5] it was above 100 µM; in test [6] it was above 100 µM. In test [9], this molecule came in with a TGI above 100 µM.
`COc1ccc2c(c1)OCC1(O)Cc3ccccc3OC21` (stereo not given): the TGI in test [10], in test [1], in [2], in test [4], in [5] and in test [6] was above 100 µM throughout. In addition, the TGI in test [7] and in [8] was above 100 µM in each case.
`CC(=O)N1N=C(c2c(O)ccc3ccccc23)CC1C(=O)c1ccco1` (stereo not given): the TGI in test [10] is above 100 µM; in test [1] it was 86 µM; in test [2], 50.3 µM; in test [4] it was above 100 µM; in test [5] it was above 100 µM; in test [6], 60.1 µM. For the same molecule, the TGI in [7] was above 100 µM; in test [8], 89.9 µM.
As for `CC1(C)O[C@H](C(=O)O)[C@@H](C(=O)O)O1`, the TGI in test [10], in [1], in [2], in test [4], in test [5] and in [6] was above 100 µM each time. Moreover, the TGI in [7], in test [8] and in test [9] was above 100 µM each time.
`C=Nc1ccc([N+](=O)[O-])cc1`: the TGI in test [10], in test [1], in test [2], in [3], in [5] and in [6] was above 100 µM each time. Moreover, the TGI in test [8] and in [9] was above 100 µM throughout.
In the case of `Cc1ccc(S(=O)(=O)NC(=O)NC(Cc2c[nH]c3ccccc23)C(=O)O)cc1` (stereo not given), the TGI in [1], in test [2], in [3], in [4], in [5] and in [6] was above 100 µM in each case. Further, the TGI in [7], in test [8] and in test [9] was above 100 µM each time.
With `O=S(=O)(c1ccccc1)n1c(C(O)c2ccncc2)cc2ccccc21` (stereo not given), the TGI in test [10], in test [1], in test [2], in test [4], in [5] and in test [6] was above 100 µM each time. The results for the TGI in [7], in test [8] and in test [9] were above 100 µM, 35.4 µM and above 100 µM, respectively.
`Cc1nc2c(cc1C(=O)NN)c(=O)n(C)c(=O)n2C`: the TGI in test [1], in test [2], in test [4], in test [5], in [6] and in test [7] was above 100 µM in each case. The TGI in test [8] and in test [9] was above 100 µM in each case.
